According to paper PMC11936226, “Tris inhibits a GH1 β-glucosidase by a linear mixed inhibition mechanism” (PLOS One, 2025):

Key:
[1] = target: T1, Sfβgly (GH1 β-glucosidase) (Spodoptera frugiperda, UniProt O61594); test: hydrolysis initial rates by purified enzyme (glucose detection); format: biochemical
T1 construct: purified recombinant Sfβgly

[2] = target: T1, Sfβgly (GH1 β-glucosidase); test: steady-state inhibition kinetics (Lineweaver-Burk) with NPβglc as substrate; also with cellobiose (Ki […]); format: biochemical

T1 sequence (O61594 21-509): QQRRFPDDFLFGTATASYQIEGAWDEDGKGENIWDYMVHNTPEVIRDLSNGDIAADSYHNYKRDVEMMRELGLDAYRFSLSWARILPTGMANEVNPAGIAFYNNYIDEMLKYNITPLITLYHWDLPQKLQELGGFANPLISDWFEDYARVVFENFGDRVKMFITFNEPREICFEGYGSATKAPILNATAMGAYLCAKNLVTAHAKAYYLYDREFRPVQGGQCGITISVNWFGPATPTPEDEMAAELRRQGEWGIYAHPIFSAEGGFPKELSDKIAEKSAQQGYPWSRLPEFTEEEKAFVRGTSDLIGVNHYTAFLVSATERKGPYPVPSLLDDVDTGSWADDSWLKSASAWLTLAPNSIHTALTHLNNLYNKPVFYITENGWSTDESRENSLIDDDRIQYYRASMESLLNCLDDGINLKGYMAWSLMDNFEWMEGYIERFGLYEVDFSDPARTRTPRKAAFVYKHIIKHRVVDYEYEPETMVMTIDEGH

Row | Structure (SMILES) | hydrolysis initial rates by purified enzyme (glucose detection) [1] | Ki [2] [mM]
1 | OC[C@H]1O[C@@H](O[C@H]2[C@H](O)[C@@H](O)C(O)O[C@@H]2CO)[C@H](O)[C@@H](O)[C@@H]1O (some centres unmarked) [C2, cellobiose] | The same experiment was repeated using C2, a natural substrate of Sfβgly, and two independent enzyme samples. | 
2 | NC(CO)(CO)CO [Tris, 2-amino-2-(hydroxymethyl)-1,3-propanediol] |  | 12 ± 2
